For experiment [1], the target named is T1, High affinity choline transporter 1 (Homo sapiens, UniProt Q9GZV3).
T1 sequence (Q9GZV3 whole entry): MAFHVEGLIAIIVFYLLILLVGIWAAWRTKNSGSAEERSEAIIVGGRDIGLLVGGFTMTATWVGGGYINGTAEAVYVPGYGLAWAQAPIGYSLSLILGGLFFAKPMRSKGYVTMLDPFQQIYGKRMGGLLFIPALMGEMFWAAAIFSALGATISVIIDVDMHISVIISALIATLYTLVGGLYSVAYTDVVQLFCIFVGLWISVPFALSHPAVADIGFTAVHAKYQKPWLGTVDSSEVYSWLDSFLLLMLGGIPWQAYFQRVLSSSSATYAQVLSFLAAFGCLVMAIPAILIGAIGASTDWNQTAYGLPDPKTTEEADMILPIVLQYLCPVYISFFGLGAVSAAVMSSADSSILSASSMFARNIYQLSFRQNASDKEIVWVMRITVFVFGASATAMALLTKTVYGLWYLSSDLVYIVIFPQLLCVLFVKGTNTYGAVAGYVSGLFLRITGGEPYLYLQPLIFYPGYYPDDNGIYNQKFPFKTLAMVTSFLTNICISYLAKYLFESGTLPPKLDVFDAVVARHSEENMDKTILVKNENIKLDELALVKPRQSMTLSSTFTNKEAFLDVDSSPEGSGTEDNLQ
In words: CHT inhibitors, dose response, cell-based, 5-point CRC, membrane potential dye (AID 504840). The class given is functional.

In experiment [2] the target is T1, High affinity choline transporter 1. In words: CHT inhibitors, dose response, cell-based, 10-point CRC, membrane potential dye (AID 588401).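 Note: membrane potential dye fluorescence of choline-evoked depolarization via CHT.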 The class given is functional.
Experiment [3] has as its target DNA (cytosine-5)-methyltransferase 1 (Homo sapiens, UniProt P26358). In words: DNMT1 methyltransferase inhibitors, confirmation, biochemical, fluorescent molecular beacon (AID 602386). The class given is functional.
In experiment [4] the target is T2, Small ubiquitin-related modifier 1 (Homo sapiens, UniProt P63165). Briefly: inhibitors of SUMO1 peptide binding, dose response, biochemical, fluorescence polarization, uHTS hits (AID 624382). The class given is functional. Particulars: read-out: IC50_Mean.
T2 sequence (P63165 whole entry): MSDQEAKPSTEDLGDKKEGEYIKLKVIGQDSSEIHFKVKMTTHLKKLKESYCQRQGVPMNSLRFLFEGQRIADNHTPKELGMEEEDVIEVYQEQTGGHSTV
Experiment [5] deals with T2, Small ubiquitin-related modifier 1. Briefly: inhibitors of SUMO1 partner interactions, dose response, biochemical, FRET (AID 624383). The conditions noted are these: read-out: IC50_Mean. The format is functional.
Another experiment deals with Albumin (Bos taurus, UniProt P02769). Briefly: Counterscreen for inhibitors of T-cell receptor (TCR)-CD3 interaction: Fluorescence-based biochemical high throughput dose response assay to identify inhibitors of T-cell receptor (TCR)-CD3 interaction using a TAMRA-labeled BSA probe. The format is functional.
Sequence of Albumin (P02769 whole entry): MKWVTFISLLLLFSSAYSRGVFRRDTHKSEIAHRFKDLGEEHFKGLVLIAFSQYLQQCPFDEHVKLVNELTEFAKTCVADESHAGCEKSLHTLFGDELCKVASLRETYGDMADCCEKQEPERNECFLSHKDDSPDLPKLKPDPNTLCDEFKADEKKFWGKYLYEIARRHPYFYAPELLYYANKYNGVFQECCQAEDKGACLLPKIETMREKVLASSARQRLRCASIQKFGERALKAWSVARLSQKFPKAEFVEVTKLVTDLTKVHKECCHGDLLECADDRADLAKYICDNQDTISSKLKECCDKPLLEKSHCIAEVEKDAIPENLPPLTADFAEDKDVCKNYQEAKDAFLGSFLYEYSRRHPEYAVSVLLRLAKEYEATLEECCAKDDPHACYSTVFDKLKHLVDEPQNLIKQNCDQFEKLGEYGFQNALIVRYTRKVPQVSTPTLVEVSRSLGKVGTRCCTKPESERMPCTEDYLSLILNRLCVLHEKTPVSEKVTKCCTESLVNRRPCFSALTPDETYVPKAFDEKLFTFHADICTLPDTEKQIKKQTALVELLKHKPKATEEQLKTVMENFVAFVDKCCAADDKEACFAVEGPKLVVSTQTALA
In the next experiment the test system is H9c2. In words: cells. The class given is functional, cell-based. Particulars: Rattus norvegicus, H9c2, Myocardium.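 Note: confirmatory concentration-response retest of ultra-high-throughput screening hits for modulation of myocardial damage; cell death induced by hydrogen peroxide oxidative stress; compound pretreatment for 60 min then peroxide exposure for 2 h; potency is for protecting the cells against peroxide damage rather than for killing them.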
In the next experiment the target is Melanocortin receptor 4 (Homo sapiens, UniProt P32245). The format is functional, cell-based.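 Note: Cell-based assay with luminescence read-out, confirmatory dose-response testing for agonist activity of biased ligands at MC4R; human U2OS cells with tagged receptor and beta-arrestin; potency of agonists that increase receptor coupling to beta-arrestin.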
Sequence of Melanocortin receptor 4 (P32245 whole entry): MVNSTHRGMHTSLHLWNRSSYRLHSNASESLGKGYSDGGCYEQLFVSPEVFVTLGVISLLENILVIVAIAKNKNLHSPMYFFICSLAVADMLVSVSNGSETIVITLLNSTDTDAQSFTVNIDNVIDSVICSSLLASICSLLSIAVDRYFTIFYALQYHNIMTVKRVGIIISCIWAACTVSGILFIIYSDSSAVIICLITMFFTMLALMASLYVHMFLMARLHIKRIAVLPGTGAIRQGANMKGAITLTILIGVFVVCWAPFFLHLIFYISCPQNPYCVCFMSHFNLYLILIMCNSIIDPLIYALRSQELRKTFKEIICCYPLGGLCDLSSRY
The target of experiment [6] is T3, Apoptotic protease-activating factor 1 (Homo sapiens, UniProt O14727).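 Note: caspase-3 cleavage of fluorogenic Rh110 DEVD substrate downstream of apoptosome activation.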
T3 sequence (O14727 whole entry): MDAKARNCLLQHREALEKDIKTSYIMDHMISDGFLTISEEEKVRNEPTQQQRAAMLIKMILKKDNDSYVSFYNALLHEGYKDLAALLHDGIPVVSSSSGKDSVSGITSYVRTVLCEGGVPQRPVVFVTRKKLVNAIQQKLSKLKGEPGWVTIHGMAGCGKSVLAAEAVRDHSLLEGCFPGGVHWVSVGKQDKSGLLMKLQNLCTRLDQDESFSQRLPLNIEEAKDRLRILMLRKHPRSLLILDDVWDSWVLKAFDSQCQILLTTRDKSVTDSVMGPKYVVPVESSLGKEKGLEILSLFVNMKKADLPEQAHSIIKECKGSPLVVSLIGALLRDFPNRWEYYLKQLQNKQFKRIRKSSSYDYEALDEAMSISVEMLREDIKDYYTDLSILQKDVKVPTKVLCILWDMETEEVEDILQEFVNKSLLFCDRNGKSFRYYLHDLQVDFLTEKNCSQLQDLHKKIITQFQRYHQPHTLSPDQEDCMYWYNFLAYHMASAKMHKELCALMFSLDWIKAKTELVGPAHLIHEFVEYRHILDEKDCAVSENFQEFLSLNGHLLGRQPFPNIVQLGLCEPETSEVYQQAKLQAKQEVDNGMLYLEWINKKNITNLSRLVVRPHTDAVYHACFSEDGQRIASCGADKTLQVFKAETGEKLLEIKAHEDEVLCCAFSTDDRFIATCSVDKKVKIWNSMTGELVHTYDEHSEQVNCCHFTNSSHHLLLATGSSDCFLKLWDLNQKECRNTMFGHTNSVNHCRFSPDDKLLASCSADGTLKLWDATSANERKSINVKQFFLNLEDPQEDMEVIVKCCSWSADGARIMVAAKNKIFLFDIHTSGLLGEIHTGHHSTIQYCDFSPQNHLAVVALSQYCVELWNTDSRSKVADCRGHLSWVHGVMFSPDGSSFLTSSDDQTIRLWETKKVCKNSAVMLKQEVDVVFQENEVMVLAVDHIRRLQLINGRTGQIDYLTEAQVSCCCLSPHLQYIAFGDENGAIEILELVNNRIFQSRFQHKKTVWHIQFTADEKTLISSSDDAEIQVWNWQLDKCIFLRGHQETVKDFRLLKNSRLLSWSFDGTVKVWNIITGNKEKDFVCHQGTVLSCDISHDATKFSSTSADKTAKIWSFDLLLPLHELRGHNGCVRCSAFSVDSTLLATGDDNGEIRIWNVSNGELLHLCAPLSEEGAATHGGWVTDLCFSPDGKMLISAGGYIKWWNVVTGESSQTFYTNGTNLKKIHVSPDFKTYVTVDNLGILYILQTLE
Briefly: SAR analysis of small molecule Activators of Apaf-1 in a Fluorescent assay. The class given is functional. The conditions noted are these: read-out: EC50_Mean.

SMILES strings stand for the structures. Activity calls are given as the source filed them.

Sequence of DNA (cytosine-5)-methyltransferase 1 (P26358 whole entry): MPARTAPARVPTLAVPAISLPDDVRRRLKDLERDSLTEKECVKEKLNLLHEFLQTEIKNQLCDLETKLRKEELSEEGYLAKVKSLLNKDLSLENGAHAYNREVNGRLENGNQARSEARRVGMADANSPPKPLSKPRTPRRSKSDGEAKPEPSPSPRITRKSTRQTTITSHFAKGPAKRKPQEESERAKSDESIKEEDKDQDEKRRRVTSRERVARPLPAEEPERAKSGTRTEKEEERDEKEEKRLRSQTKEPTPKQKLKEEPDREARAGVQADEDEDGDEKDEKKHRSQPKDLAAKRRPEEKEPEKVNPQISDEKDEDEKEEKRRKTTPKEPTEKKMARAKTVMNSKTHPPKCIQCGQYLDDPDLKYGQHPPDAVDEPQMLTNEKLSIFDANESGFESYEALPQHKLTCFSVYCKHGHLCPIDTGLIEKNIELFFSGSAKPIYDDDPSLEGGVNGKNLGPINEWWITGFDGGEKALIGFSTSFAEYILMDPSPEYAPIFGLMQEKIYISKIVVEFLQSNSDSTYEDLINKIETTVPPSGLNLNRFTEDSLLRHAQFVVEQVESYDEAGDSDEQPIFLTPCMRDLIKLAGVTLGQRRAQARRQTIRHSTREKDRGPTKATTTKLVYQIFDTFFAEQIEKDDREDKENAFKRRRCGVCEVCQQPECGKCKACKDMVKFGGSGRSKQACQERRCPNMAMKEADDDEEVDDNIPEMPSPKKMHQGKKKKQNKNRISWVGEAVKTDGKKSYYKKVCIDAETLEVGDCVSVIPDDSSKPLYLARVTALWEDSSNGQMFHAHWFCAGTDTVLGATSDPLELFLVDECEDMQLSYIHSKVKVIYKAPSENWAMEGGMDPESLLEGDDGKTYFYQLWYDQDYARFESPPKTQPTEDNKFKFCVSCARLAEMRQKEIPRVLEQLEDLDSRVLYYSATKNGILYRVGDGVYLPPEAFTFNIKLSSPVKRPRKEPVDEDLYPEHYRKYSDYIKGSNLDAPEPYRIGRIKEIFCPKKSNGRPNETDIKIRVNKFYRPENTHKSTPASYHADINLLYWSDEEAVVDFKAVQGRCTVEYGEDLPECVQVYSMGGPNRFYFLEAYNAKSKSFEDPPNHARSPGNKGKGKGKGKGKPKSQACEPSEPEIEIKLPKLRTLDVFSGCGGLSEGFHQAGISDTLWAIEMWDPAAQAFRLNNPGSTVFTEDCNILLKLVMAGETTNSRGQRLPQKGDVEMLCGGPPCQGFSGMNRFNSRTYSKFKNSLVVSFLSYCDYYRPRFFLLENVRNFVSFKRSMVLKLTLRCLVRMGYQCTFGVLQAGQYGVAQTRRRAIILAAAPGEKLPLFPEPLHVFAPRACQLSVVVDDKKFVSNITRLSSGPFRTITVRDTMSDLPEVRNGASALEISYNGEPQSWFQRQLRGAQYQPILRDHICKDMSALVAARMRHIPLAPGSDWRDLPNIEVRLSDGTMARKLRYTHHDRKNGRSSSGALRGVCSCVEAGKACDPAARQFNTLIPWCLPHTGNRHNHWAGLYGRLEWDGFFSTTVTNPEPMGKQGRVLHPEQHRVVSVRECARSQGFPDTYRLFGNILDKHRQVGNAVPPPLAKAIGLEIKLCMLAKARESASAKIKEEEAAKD

`O=C(Cc1ccc(-n2c(=O)c3ccccc3n(Cc3ccccc3F)c2=O)cc1)NCC1CCCO1` (stereo unspecified): the IC50 is 7.14 µM (active) in experiment [1] and 3.98 µM (active) in experiment [2].

For `c1coc(-c2ccc3nncn3c2)c1`, the IC50 in experiment [3] is 4.58 µM (active); in experiment [4], > 66.6 µM (inactive); in experiment [5], 7.19 µM (active); at Albumin it was > 94.2 µM (inactive).

On to `COc1ccc(-c2nc(C=O)cs2)cc1`, for which the IC50 in experiment [1] was 2.88 µM (active); in [2], 3.57 µM (active).

`COc1cc(-c2cc(NC=O)c3ncc(-c4ccc(C(C)=O)cc4)n3c2)cc(OC)c1OC`: in the experiment with H9c2, the IC50 is > 79 µM (inactive). The EC50 on Melanocortin receptor 4 is > 89.2 µM (inactive).

In the case of `CCOc1ccccc1NC(=O)CCS(=O)(=O)c1ccc2c(c1)OCCO2`, the EC50 in experiment [6] is > 100 µM (inactive).
